Assay results reported in patent US20240391862A1, “(1,4,5-TRISUBSTITUTED-1H-PYRAZOL-3-YL)OXY-2-ALKOXY ALKYL ACIDS AND THEIR DERIVATIVES, THEIR SALTS AND THEIR USE AS HERBICIDAL AGENTS” (Bayer AKtiengesellschaft, priority 2021, published 2024).

Columns and labels:
[1] = test system: ECHCG; experiment: Post-emergence herbicidal effect, greenhouse pot test; type: in vivo, Echinochloa crus-galli
Summary of the method: (§1)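 Visual % activity scored roughly 3 weeks post-spray against untreated plants, where 100% means death and 0% equals control. Plants were treated at the one-leaf stage, 2 to 3 weeks after sowing in sandy loam, at 20 to 320 g/ha.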

[2] = test system: ZEAMX; experiment: Post-emergence herbicidal effect and crop plant compatibility, greenhouse pot test; type: in vivo, Zea mays; conditions: 20 g/ha, one-leaf stage, rated visually after about 3 weeks vs untreated controls
Summary of the method: (§2)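 Greenhouse pot test: weeds and crops sown in sandy loam, sprayed post-emergence at one-leaf stage (2–3 weeks after sowing) with WP or EC formulations plus 0.5% additive at 600 l/ha water, rates 20–320 g/ha. Visual rating about 3 weeks later versus untreated controls (100% = dead, 0% = as control).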

[3] = test system: AVEFA; experiment: Post-emergence herbicidal effect, greenhouse pot test; type: in vivo, Avena fatua; conditions: Avena fatua, 504 h, 320 g/ha, visual rating about 3 weeks after treatment, read-out: Post-emergence effect against AVEFA
Summary of the method: as §1

[4] = test system: LOLRI; experiment: as above; type: in vivo, Lolium rigidum; conditions: Lolium rigidum, 504 h, 320 g/ha, read-out: Post-emergence effect against LOLRI in %
Summary of the method: as §1

[5] = test system: ORYSA; experiment: Post-emergence herbicidal effect and crop plant compatibility, greenhouse pot test; type: in vivo, Oryza sativa; conditions: 320 g/ha, one-leaf stage, rated visually after about 3 weeks vs untreated controls
Source text: (§3) • ALOMY: Alopecurus myosuroides SETVI: Setaria viridis • AVEFA: Avena fatua POLCO: Fallopia convolvulus • AMARE: Amaranthus retroflexus ECHCG: Echinochloa crus-galli • LOLRJ: Lolium rigidum STEME: Stellaria media • VERPE: Veronica persica MATIN: Tripleurospermum inodorum • DIGSA: Digitaria sanguinalis ABUTH: Abutylon threophrasti • TRZAS: Triticum aestivum VIOTR: Viola tricolor • BRSNW: Brassica napus ZEAMX: Zea mays • PHBPU: Ipomoea purpurea GLXMA: Glycine max • ORYSA: Oryza sativa HORMU: Hordeum murinum
(§4) Seeds of monocotyledonous and dicotyledonous weeds and crop plants are placed in sandy loam in plastic or organic planting pots, covered with soil and cultivated in a greenhouse under controlled growth conditions. 2 to 3 weeks after sowing, the trial plants are treated at the one-leaf stage. The compounds of the invention, formulated in the form of wettable powders (WP) or as emulsion concentrates (EC), are then sprayed onto the green parts of the plants as aqueous suspension or emulsion with addition of 0.5% additive at a water application rate of 600 l/ha (converted). After the test plants have been kept in the greenhouse under optimum growth conditions for about 3 weeks, the activity of the preparations is rated visually in comparison to untreated controls. For example, 100% activity=the plants have died, 0% activity=like control plants.
(§5) Tables 20a to 38c below show the effects/crop compatibilities of selected compounds of the general formula (I) on various harmful plants at an application rate corresponding to 20 to 320 g/ha, which were obtained by the trial procedure specified above.

[6] = test system: SETVI; experiment: Post-emergence herbicidal effect, greenhouse pot test; type: in vivo, Setaria viridis; conditions: 320 g/ha
Summary of the method: as §1

[7] = test system: AMARE; experiment: as above; type: in vivo, Amaranthus retroflexus; conditions: Amaranthus retroflexus, 504 h, 320 g/ha, visual rating about 3 weeks after treatment, read-out: Post-emergence effect against AMARE
Summary of the method: as §1

[8] = test system: TRZAS; experiment: Post-emergence herbicidal effect and crop plant compatibility, greenhouse pot test; type: in vivo, Triticum aestivum; conditions: for Post-emergence effect against TRZAS: visual rating about 3 weeks after treatment, crop plant
Summary of the method: as §2

[9] = test system: ABUTH; experiment: Post-emergence herbicidal effect, greenhouse pot test; type: in vivo, Abutilon theophrasti; conditions: Abutilon theophrasti, 504 h, 320 g/ha, visual rating about 3 weeks after treatment, read-out: Post-emergence effect against ABUTH
Summary of the method: as §1

[10] = test system: DIGSA; experiment: as above; type: in vivo, Digitaria sanguinalis; conditions: Digitaria sanguinalis, 504 h, 320 g/ha, visual rating about 3 weeks after treatment, read-out: Post-emergence effect against DIGSA
Summary of the method: as §1

[11] = test system: ALOMY; experiment: as above; type: in vivo, Alopecurus myosuroides; conditions: Alopecurus myosuroides, 504 h, 320 g/ha, visual rating about 3 weeks after treatment, read-out: Post-emergence effect against ALOMY
Summary of the method: as §1

[12] = test system: GLXMA; experiment: Post-emergence herbicidal effect and crop plant compatibility, greenhouse pot test; type: in vivo, Glycine max; conditions: 20 g/ha, visual rating about 3 weeks after treatment, crop plant
Source text: as §3, §4, §5

[13] = test system: PHBPU; experiment: Post-emergence herbicidal effect, greenhouse pot test; type: in vivo, Ipomoea purpurea; conditions: 320 g/ha
Summary of the method: as §1

Q: Which results are given for `COC(=O)C(OC)Oc1nn(-c2cnccn2)c(-c2ccc(F)nc2)c1Cl` (stereo not drawn) [Example I-35]?
A: pest or weed control at 80 g/ha ([1]; Echinochloa crus-galli, 504 h, 80 g/ha, read-out: Post-emergence effect against ECHCG in %): 80%; pest or weed control at 320 g/ha ([1]; Echinochloa crus-galli, 504 h, 320 g/ha, read-out: Post-emergence effect against ECHCG in %): 90%; plant injury at 20 g/ha ([2]; Zea mays, 504 h, read-out: Post-emergence effect at 20 g/ha against ZEAMX in %): 20%; pest or weed control at 320 g/ha [3]: 80%; pest or weed control at 320 g/ha [4]: 80%; Post-emergence effect at 320 g/ha against ORYSA in % [5]: 10%; pest or weed control at 320 g/ha ([6]; Setaria viridis, 504 h, read-out: Post-emergence effect against SETVI in %): 80%; pest or weed control at 320 g/ha [7]: 80%; percent crop injury (phytotoxicity) to wheat, post-emergence at 20 g/ha ([8]; Triticum aestivum, 504 h, 20 g/ha, one-leaf stage, rated visually after about 3 weeks vs untreated controls, read-out: Post-emergence effect at 20 g/ha against TRZAS in %): 20%; pest or weed control at 320 g/ha [9]: 80%; pest or weed control at 320 g/ha [10]: 80%; pest or weed control at 320 g/ha [11]: 90%

Q: What does the source list for `COC(Oc1nn(-c2cccc(C)c2F)c(-c2ccnc(F)c2)c1Br)C(=O)O` (stereo not drawn) [Example I-92]?
A: Post-emergence effect against GLXMA [12]: 10%; Post-emergence effect against ECHCG in % ([1]; 80 g/ha): 80%; Post-emergence effect against ECHCG in % ([1]; 320 g/ha): 90%; Post-emergence effect at 20 g/ha against ZEAMX in % [2]: 20%; Post-emergence effect against PHBPU in % [13]: 80%; Post-emergence effect against SETVI in % [6]: 80%; Post-emergence effect at 20 g/ha against TRZAS in % ([8]; 20 g/ha, one-leaf stage, rated visually after about 3 weeks vs untreated controls): 0%; Post-emergence effect against TRZAS ([8]; 80 g/ha): 10%; Post-emergence effect against TRZAS ([8]; 320 g/ha): 20%
